Here are results for three substances from patent EP0304279B1, “Peptide determinant associated with immunity” (THE BOARD OF TRUSTEES OF THE LELAND STANFORD JUNIOR …, priority 1987, dated 1997).

The test system of experiment [1] is clone F1-28, a MBP-specific T-cell. Kind of experiment: Stimulation of MBP-specific T-cell clone by synthetic peptide (proliferation assay). The format is cell-based. The settings on record: T-cell clone F1-28 recognizing the autoantigen myelin basic protein. The source says: The determinant of myelin basic protein (MBP) P5-17 (Zamvil, et al., Nature, supra) contains a pattern P-S-Q-R-H-G-S-K-Y-L-A-T-A. Using the algorithm for the subject motif for predicting T-cell clones the epitope of the clone F1-28, a MBP-specific T-cell was isolated (Zamvil, et al., J. Exp. Med. (1985) 162: 2107), which clone recognizes the autoantigen myelin basic protein. A peptide corresponding to amino acids P35-47 containing two patterns GILD and RFFS was synthesized and shown to be stimulatory.
(§1) Proliferation Assay: Proliferative responses were determined as described previously (Zamvil et al., Nature (1985) 317:355). 1x10^4 T-cells were cultured with 5x10^5 X-irradiated (3,000 rad) PL/J splenic APC in 0.2 ml of culture media in 96 well flat-bottomed microtiter plates (Falcon, 3072). Peptides were added to culture giving the final concentrations indicated. At 48 hours incubation, each well was pulsed with 1 µCi ^3H-thymidine and harvested 16 hours later. The mean c.p.m. thymidine incorporation was calulated for triplicate cultures. Standard deviations from replicate cultures were within 10% mean value.

For experiment [2], the system named is mouse T-cells. Kind of experiment: Proliferation assay (3H-thymidine incorporation) of MHC-restricted T-cells with PL/J splenic APC. It counts as cell-based. As for the experimental part: as §1
A general note: Uptake of a labelled nucleoside into DNA is a usual measure of proliferation.

For experiment [3], the system named is clone F1-28, a MBP-specific T-cell. The settings on record: Zamvil et al., Nature (1986) 324:258; cited from earlier work.

With “G-I-L-D-S-I-G-R-F-F-S-G-D-R-G-A-P (GILDSIGRFFSGDRGAP) [P35-47, peptide of myelin basic protein containing two patterns GILD and RFFS]”, the T-cell stimulation entry in experiment [1] and in experiment [2] (mouse T-cells restricted by MHC I-E(u)α E(u)β) was “stimulatory” throughout.

As to “L-D-S-I-G-R-F-F-S-G-D-R-G-A-P (LDSIGRFFSGDRGAP)”, in experiment [3], the “stimulatory epitope defined with overlapping peptides” value is “stimulatory epitope”.

As to “P89-101: P89-101 of the human myelin basic protein comprising the motif HFFK (PHLIRLFSRDAPG; UniProt P02686 89-101, looked up, fragment)”, the T-cell stimulation result in experiment [2] (mouse T-cells restricted by I-A(s)α A(s)β) is given as “stimulatory”.
